{"source": "paper PMC9353713", "about": "“Tumor-targeting cell-penetrating peptide, p28, for glioblastoma imaging and therapy” (Frontiers in Oncology, 2022)", "key": {"LN-229": {"test_system": "LN-229", "assay": "Cytotoxicity, MTT assay", "type": "cell-based, human", "conditions": "LN-229, 1 mM, 72 hr, N=3, P<0.001", "method": "(§1) Cytotoxicity was evaluated by the MTT assay as described previously ([21], [22]). Cells seeded in 96-well plates were exposed to TMZ at various concentrations for 72 hr (N=3 in each concentration). Curves were fitted using GraphPad PRISM (version 5.0) as a function of a nonlinear one-phase decay (maximum iterations: 1,000, Cl: 95%)."}, "U-118": {"test_system": "U-118", "assay": "Cytotoxicity, MTT assay", "type": "cell-based, human", "conditions": "U-118, 1 mM, 72 hr, N=3, P<0.001", "method": "as §1"}, "LN-229 xenograft": {"test_system": "LN-229 xenograft", "assay": "Subcutaneous xenograft tumor growth", "type": "in vivo, athymic mice", "conditions": "LN-229 s.c. xenograft, day 20; TMZ 5 mg/kg Day1-5, p28 10 mg/kg 3 times weekly, i.p.; N=5/group; P<0.001", "method": "(§2) All animal work was performed under a protocol approved by the University of Illinois at Chicago. Athymic mice at 4-5 weeks old were purchased from The Jackson Laboratory. For orthotopic xenografts, GBM cell lines (LN-229 and U-118) were injected into the cerebral cortex. Following anesthesia, cancer cell suspensions at 5x10^5 cells/3μl were stereotactically injected (2 mm lateral to the sagittal suture, 1 mm anterior to the coronal suture, 3 mm depth) using a Koft model 963 stereotactic apparatus with a 31-gauge Hamilton syringe. After injection, the injection site was covered with sterile bone wax. Tumor growth was monitored by MR imaging. For tumor growth study, GBM cell lines (LN-229 and U-118) at 1.0x10^6 cell/mouse were subcutaneously (s.c.) implanted into the right flank of athymic mice ([22]). When tumors reached 3 mm in diameter, animals were randomized into several groups; PBS (control), TMZ 5 mg/kg (25.7 μmol/kg) 5 injections on Day1-5, and p28 10 mg/kg (3.4 μmol/kg) 3 times weekly, i.p. Body weight was determined 3 times weekly. The tumor volume in each animal was assessed by calipers and calculated 3 times weekly.\n(§3) Data processing and statistical analysis were performed using GraphPad Prism. ANOVA test was performed for tumor growth analysis, and P<0.05 was considered statistically significant."}, "U-118 xenograft": {"test_system": "U-118 xenograft", "assay": "Subcutaneous xenograft tumor growth", "type": "in vivo, athymic mice", "conditions": "U-118 s.c. xenograft, day 20; TMZ 5 mg/kg, p28 10 mg/kg i.p.; N=7/group", "method": "as §2, §3"}, "[1]": {"assay": "Body weight in xenograft study", "type": "in vivo, athymic mice", "conditions": "U-118 xenograft mice, over four weeks of i.p. treatment", "method": "as §2"}}, "data": [{"smiles": "Cn1nnc2c(C(N)=O)ncn2c1=O", "note": "[TMZ, temozolomide]", "values": [{"measurement": "reduction (antiproliferative effect, MTT)", "setting": "LN-229", "result": 53.2, "unit": "%"}, {"measurement": "reduction (antiproliferative effect, MTT)", "setting": "U-118", "result": 36.6, "unit": "%"}, {"measurement": "reduction in tumor growth compared to the PBS control group", "setting": "LN-229 xenograft", "result": 42.4, "unit": "%"}, {"measurement": "reduction of tumor growth", "setting": "U-118 xenograft", "result": 24.5, "unit": "%"}, {"measurement": "body weight", "setting": "[1]", "result": "29.0 ± 0.8", "unit": "g"}]}]}
